Numbered stars: 1 amine (or outer) side, 2 acyl side, 3 side chain; on linkers, the order of the positions; unused ones are H or OH. Square brackets hold non-standard residues; d marks the D form. Peptide text beside a SMILES is read from it. X2 = O=C([C@H](Cc1c(F)cc(F)c(F)c1F)N[*:1])[*:2]; X3 = O=C([C@H](Cc1cc(F)c(F)c(F)c1F)N[*:1])[*:2]; Cha = N[C@@H](CC1CCCCC1)C(=O)O

From BindingDB's records for doi:10.1016/j.bmc.2021.116498 (Kyushu University, 2021) come the findings set out here.

This assay in a line: Activation of PAR-1 in human platelet-rich plasma assessed as induction of platelet aggregation by turbidimetric method.
In general, EC50 refers to the concentration that produces a half-maximal response. On to `CC(C)C[C@H](NC(=O)[C@H](CC(C)C)NC(=O)[C@H](CC1CCCCC1)NC(=O)[C@@H](N)CO)C(=O)N[C@@H](CCCNC(=N)N)C(=O)N[C@@H](CC(N)=O)C(=O)N1CCC[C@H]1C(N)=O` (H-S[Cha]LLRNP-NH2), for which the concentration giving a half-maximal response (EC50) came out at 99 µM.

`CC(C)C[C@H](NC(=O)[C@H](CC(C)C)NC(=O)[C@H](Cc1c(F)cc(F)c(F)c1F)NC(=O)[C@@H](N)CO)C(=O)N[C@@H](CCCNC(=N)N)C(=O)N[C@@H](CC(N)=O)C(=O)N1CCC[C@H]1C(N)=O` (H-S[X2]LLRNP-NH2): the half-maximal effective concentration (EC50) turned out to be 8.9 µM.

Consider `CC(C)C[C@H](NC(=O)[C@H](CC(C)C)NC(=O)[C@H](Cc1cc(F)c(F)c(F)c1F)NC(=O)[C@@H](N)CO)C(=O)N[C@@H](CCCNC(=N)N)C(=O)N[C@@H](CC(N)=O)C(=O)N1CCC[C@H]1C(N)=O` (H-S[X3]LLRNP-NH2), for which the EC50 worked out at 50 µM.

For the compound “H-SFLLRNP-NH2 [1-{(S)-2-[(S)-2-((S)-2-{(S)-2-[(S)-2-((S)-2-Amino-3-hydroxy-propionylamino)-3-phenyl-propionylamino]-4-methyl-pentanoylamino}-4-methyl-pentanoylamino)-5-guanidino-pentanoylamino]-3-carbamoyl-propionyl}-pyrrolidine-2-carboxylic acid amide]”, the concentration giving a half-maximal response (EC50) is 3 µM.
